melting point: 116 to 117 °C
Compound: CCCCCn1c2ccccc2c2cc(C(=O)c3ccccc3)ccc21

From patent US20170096426A1 (published 2017)
